Measurements: patent publication US10752901B2, “Inhibition of ferrochelatase as an antiangiogenic therapy” (Indiana University Research and Technology Corporation, priority 2015, dated 2020)
Values belong to the compound of their own block, whether it stands above or below them.

Key:
[1] = biological target: T1, ferrochelatase (Sus scrofa, UniProt F1S1X4); experiment: Photoaffinity pull down from porcine brain lysate; type: binding; settings: competition with excess (1 mM) cremastranone isomer; immunoblot band intensity
T1 construct: from tissue; host or cells: porcine brain lysate (S2 and S3 supernatants)
T1 sequence (F1S1X4 1-433): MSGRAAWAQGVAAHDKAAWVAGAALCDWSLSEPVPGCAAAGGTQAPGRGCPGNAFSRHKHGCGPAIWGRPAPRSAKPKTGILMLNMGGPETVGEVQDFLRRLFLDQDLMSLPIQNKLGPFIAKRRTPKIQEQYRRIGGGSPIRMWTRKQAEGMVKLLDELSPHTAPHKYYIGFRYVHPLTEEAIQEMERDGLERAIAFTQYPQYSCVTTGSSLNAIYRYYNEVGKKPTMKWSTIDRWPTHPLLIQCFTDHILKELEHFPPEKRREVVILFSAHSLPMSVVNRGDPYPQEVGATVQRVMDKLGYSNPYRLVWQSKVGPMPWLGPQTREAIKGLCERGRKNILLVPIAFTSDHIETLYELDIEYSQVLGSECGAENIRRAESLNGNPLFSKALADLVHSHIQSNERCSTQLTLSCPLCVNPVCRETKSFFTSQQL
Protocol: Synthesis and characterization of affinity reagents 2 and 3 are shown in WO2014182695A1, filed May 6, 2014, and incorporated by reference to the extent it is consistent herewith. Compounds 1 and 4 were synthesized as described in Lee et al., Org Biomol Chem 28, p. 28 (2014); Basavarajappa et al., PLoS One 9, e95694 (2014). For pulldowns, Neutravidin agarose beads (1 mL of 50% slurry) were washed three times in buffer A containing 25 mM Tris-HCl pH 7.4, 150 mM NaCl, 2.5 mM sodium pyrophosphate, 1 mM phenylmethylsulfonyl fluoride (PMSF), 0.1 mM sodium orthovanadate, 10 μg/mL aprotinin and 10 μg/mL leupeptin. The beads were then incubated with 100 μM affinity or control reagents 2 or 3 overnight at 4° C. with rotation. […]
The beads were collected by centrifugation at 500×g for 5 minutes, then resuspended in 1 mL of buffer B and irradiated with 365 nm UV light (Mercury bulb H44GS100 from Sylvania in a Black-Ray 100 A long-wave UV lamp) in a 60 mm Petri dish for 30 minutes at 4° C. […] The eluates were then analyzed in 4-20% gradient SDS-PAGE and the protein bands were visualized using silver staining. The protein bands pulled down specifically by photo-affinity reagent were excised from the silver stained SDS-PAGE gel and analyzed by mass spectrometry (IUSM Proteomics Core). […]

[2] = system: HRECs; experiment: Cell proliferation assay (alamarBlue), HRECs; type: cell-based, human
Protocol: Proliferation of cells was monitored as described in Basavarajappa et al., PLoS One 9 (2014). Briefly, after FECH knockdown 2,500 cells in 100 μL of growth medium were plated in each well of 96-well clear-bottom black plates and incubated for 24 hours. Then, compound/DMSO vehicle (final DMSO concentration of 1%) were added and the plates were incubated for 44 hours in 100 μL media at 37° C. and 5% CO2. Then, 11.1 μL of alamarBlue reagent was added to each well of the plate and 4 hours later fluorescence readings were taken at excitation and emission wavelengths of 560 nm and 590 nm respectively using a Synergy H1 plate reader (BioTek, Winooski, Vt., USA). The concentration ranges of griseofulvin and NMPP used were 0.5 nM-500 μM and 0.1 nM-100 μM respectively.

[3] = system: endothelial cells; experiment: Anti-proliferative activity of cremastranone; type: cell-based, human; settings: endothelial versus non-endothelial cells
[4] = biological target: T2, FECH (Homo sapiens, UniProt P22830); experiment: PPIX build-up assay; type: cell-based; settings: HRECs, 5-ALA induced
T2 construct: host or cells: HRECs (human retinal endothelial cells)
T2 sequence (P22830 55-423): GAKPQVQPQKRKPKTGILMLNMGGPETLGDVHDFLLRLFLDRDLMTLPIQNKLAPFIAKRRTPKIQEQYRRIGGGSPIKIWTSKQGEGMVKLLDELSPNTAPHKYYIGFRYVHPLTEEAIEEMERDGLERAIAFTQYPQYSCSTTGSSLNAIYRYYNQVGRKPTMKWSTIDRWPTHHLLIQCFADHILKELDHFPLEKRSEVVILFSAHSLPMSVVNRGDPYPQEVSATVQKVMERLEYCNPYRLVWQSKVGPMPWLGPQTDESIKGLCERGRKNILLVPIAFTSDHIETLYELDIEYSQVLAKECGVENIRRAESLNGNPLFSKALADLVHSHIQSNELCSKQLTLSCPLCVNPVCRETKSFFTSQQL
Protocol: HRECs were grown in a 6-well plate until confluent. Then, cells were serum starved overnight in EBM-2 medium. Fresh EGM-2 medium containing DMSO or compounds was added to cells, and they were incubated at 37° C. for 1 hour followed by addition of 1 mM 5-ALA to increase flux through the heme biosynthetic pathway. After 3 hours of incubation in the dark at 37° C., the cells were trypsinized and lysed in buffer containing 25 mM HEPES-NaOH pH 7.4, 150 mM NaCl, 1% NP-40, 10% glycerol and 1 mM PMSF. The cell lysates were incubated in the dark at 4° C. for 20 minutes on a shaker and centrifuged at 12000×g for 15 minutes. Supernatants were collected for analysis. In a 384-well black plate, 20 μL of supernatant was mixed with 20 μL of 1:1 solution of 2 M perchloric acid and methanol. After 5 minutes of incubation, fluorescence readings were taken at excitation and emission wavelengths of 407 nm and 610 nm using the Synergy plate reader.

[5] = system: HRECs; experiment: In vitro Matrigel tube formation assay; type: cell-based, human
Protocol: The ability of HRECs to form tubes in vitro was monitored as described in Basavarajappa et al., J Med Chem 58, pp. 5015-5027 (2015). Briefly, HRECs were treated with the indicated concentrations of compounds or DMSO or siRNAs for 48 hours and then 15,000 HRECs in 100 μL of EGM-2 medium containing siRNAs, DMSO or compounds were added to each well of a 96-well plate that was pre-coated with 50 μL of Matrigel basement membrane. Photographs of each well at different time points were taken to measure the tube formation using the Angiogenesis Analyzer plugin in ImageJ software (v.1.48).

[6] = Oral griseofulvin systemic effects (mouse and liver weights); type: in vivo; settings: oral feeding
Protocol: Mice were fed griseofulvin for a total of 3 weeks, with chow changed every 2-3 days. Standard mouse chow (5 g/mouse/day) was mixed in water (2.2 mL H2O/gram chow), soaked for 15 minutes, then mashed. Griseofulvin doses were prepared at 0.0% (control), 0.5%, and 1.0% with 0.0 g, 0.5 g, and 1.0 g griseofulvin: 10 mL corn oil: 100 g mouse chow ratio, respectively. […] The corn oil solutions and mouse chow mixture were manually mixed thoroughly for 10 minutes. During treatment, the mice were examined and weighed 3 times/week (FIG. 1A). On Day 8, mice underwent L-CNV as above, and were imaged by OCT at Day 15 and Day 22, at which time they were euthanized. The eyes were enucleated and flatmounts prepared as above. The livers were dissected out and weighed (FIG. 1B).

[7] = system: mouse choroid-sclera; experiment: Choroidal sprouting assay; type: cell-based; settings: ex vivo, 48 hours with compound
Protocol: To assess choroidal sprouting, pieces of choroid-sclera dissected from euthanized mouse eyes were embedded in Matrigel and grown in EGM-2 medium plus antibiotics for 72 hours to allow sprouting to initiate. The indicated concentrations of griseofulvin (in DMSO, final DMSO concentration 1%) were added and growth allowed to proceed for 48 hours. Images were taken and growth quantified by measuring distance from the edge of the choroidal piece to the growth front in 4 directions per sample.

[8] = system: HRECs; experiment: Scratch-wound migration assay; type: cell-based, human
Protocol: The migration of HRECs was monitored as described in Basavarajappa et al., PLoS One 9, e95694 (2014). Briefly, HRECs were grown until confluency in 6-well plates and then serum starved overnight in EBM-2 medium. Then, using a sterile 10 μL tip, a scratch was introduced in each well and fresh EGM-2 medium containing DMSO or different concentrations of compounds was added to the wells. For knockdown experiments, the scratch was introduced 48 hours after transfection and fresh medium was added to the wells. Photographs of the wells were taken at different time points to measure the number of migrated cells into the scratched area.

[9] = system: choroidal neovascularization; experiment: L-CNV model (laser-induced choroidal neovascularization); type: in vivo, mouse; settings: L-CNV mice
[10] = antifungal treatment of humans; cited from earlier work

- decrease of binding of ferrochelatase to affinity reagent [1]: 87%
Compound: COc1ccc(CC2COc3cc(OC)c(O)c(O)c3C2=O)cc1O (single isomer, unassigned) [cremastranone isomer]

- buildup of PPIX [4]: dose-dependent buildup of PPIX
Compound: COc1ccc(CC2COc3cc(O)c(OC)c(O)c3C2=O)cc1O (centres unmarked) [cremastranone]
- rescue of antiproliferative effects by excess 5-ALA ([2]; HRECs, addition of 5-aminolevulinic acid): partially rescued
- antiproliferative effects [3]: selective antiproliferative effects on endothelial cells

- liver weights [6]: increased
- mouse weights ([6]; experimental timecourse): did not significantly change
Compound: COC1=CC(=O)C[C@@H](C)[C@]12Oc1c(Cl)c(OC)cc(OC)c1C2=O [griseofulvin]
- tube formation ability of HRECs [5]: inhibition of tube formation
- formation of microvascular sprouts [7]: inhibited formation of microvascular sprouts
- proliferation of HRECs [2]: dose-dependent antiproliferative effects
- concentration of griseofulvin needed to have effects ([2]; HRECs in vitro (proliferation, migration, tube formation)): ~10 µM
- migration of HRECs [8]: inhibition of migration
- neovascularization ([9]; feeding 0.5% and 1% in chow): decreased neovascularization
- neovascularization ([9]; single intravitreal injection 50 μM, 100 μM): dose-dependent results
- concentration attained in plasma [10]: 1000 to 2000 ng/mL

Compound: N-methyl protoporphyrin [NMPP]
- tube formation ability of HRECs [5]: inhibited
- proliferation of HRECs [2]: inhibited
- migration of HRECs [8]: inhibited
